The values below come from US9497967B2, “Synergistic pesticidal compositions and related methods” (Dow AgroSciences LLC, priority 2013, dated 2016).

Assay type in all cases: in vivo
Common to all, as to conditions: alone

For experiment [1], the system named is Western plant bug, Lygus hesperus. Description: Treated bean piece bioassay against third-instar nymphs of Western plant bug. From the text: (§1) The method described in Colby S. R., “Calculating Synergistic and Antagonistic Responses of Herbicide Combinations,” Weeds, 1967, 15, 20-22 was used to determine an existence of synergic effect between the chloride channel activator compound and the pesticide (I), (II), or any agriculturally acceptable salt thereof in the formulated pesticidal composition. In this method, the percent insect control of the formulated pesticidal composition as observed in the study was compared to the “expected” percent control (E) as calculated by equation (1) (hereinafter “Colby's equation”) below: […]
The active compounds were formulated in a 10% acetone solution with 0.025% non-ionic surfactant, TWEEN® 20. Bioassays were performed for each different active solution. Bean pieces (about one inch-long) were used for the tests. Four bean pieces were placed in each tested active solution and left there for 10 minutes. Bean pieces were taken out of the active solution, and each piece was placed in a well in a 32-well tray and allowed to air dry. Three third-instar nymphs of Western plant bug, Lygus hesperus, were infested into each well. The percent control of the pesticidal composition against Lygus hesperus bug was determined as the “Observed” action, and compared to those obtained by using about 0.04 weight % of compound I, and using about 0.20 weight % of emamectin benzoate alone. The “Colby's Expected Action” was calculated using Colby's equation as discussed previously.

For experiment [2], the system named is South American brown stink bug, Euschistus heros. Description: Treated bean piece bioassay against third-instar nymphs of South American brown stink bug.
Excerpt: as §1
The active compounds were formulated in a 10% acetone solution with 0.025% non-ionic surfactant, TWEEN® 20. Bioassays were performed for each different active solution. Bean pieces (about one inch-long) were used for the tests. Four bean pieces were placed in each tested active solution and left there for 10 minutes. […]
The percent control of the pesticidal composition against South American brown stink bug, Euschistus heros, was determined as the “Observed” action, and compared to those obtained by using about 0.04 weight % of compound I, and using about 0.000156 weight % of emamectin benzoate alone. The “Colby's Expected Action” was calculated using Colby's equation as discussed previously.

Experiment [3] relates to diamondback moth, Plutella xylostella. Description: Cabbage plant track-sprayer bioassay against second instar diamondback moth.
Excerpt: as §1
Bioassays were performed for different active compounds. Cabbage plants with about two to three new-growth-true leaf stage were treated with different active compounds using a track sprayer application at 400 L/Ha spray volume. Three second instar diamondback moth, Plutella xylostella, were infested onto each leaf disc. The percent control of the pesticidal composition against diamondback moth, Plutella xylostella, was determined as the “Observed” action, and compared to those obtained by using about 0.0025 weight % of compound II, and using about 0.000078 weight % of emamectin benzoate alone. The “Colby's Expected Action” was calculated using Colby's equation as discussed previously.
Bioassays were performed wherein different active compounds were tested against diamondback moth, Plutella xylostella, using the procedure described in example 5A.

Consider `CCN(C(=O)CCSCCC(F)(F)F)c1cn(-c2cccnc2)nc1Cl` [Compound I, N-(3-chloro-1-(pyridin-3-yl)-1H-pyrazol-4-yl)-N-ethyl-3-((3,3,3-trifluoropropyl)thio)propanamide], for which the “% Control Three Days After Treatment” value in experiment [1] (dose rate 0.04 weight %) is 0%; in experiment [1] (dose rate 0.04 weight %, listed as compound I), “no control”; in experiment [3] (dose rate 0.000625 weight %), “no control”. Further, the “% Control Four Days After Treatment” value in experiment [2] (dose rate 0.04 weight %) is recorded as 8%.
As to emamectin benzoate, the “% Control Three Days After Treatment” value in experiment [1] (dose rate 0.20 weight %) is 0%; in experiment [1] (dose rate 0.20 weight %, listed as emamectin benzoate), “no control”; in experiment [3] (dose rate 0.000039 weight %) it was 73.91%; in experiment [3] (dose rate 0.000078 weight %), 91.3%. Further, the “% Control Four Days After Treatment” value in experiment [2] (dose rate 0.000156 weight %) is reported as 25%.
